Laboratory results as given in patent US20230078764A1 (Yumanity Therapeutics, Inc., priority 2019, published 2023).
Like-named read-outs stand apart in the source and are kept apart here.

Experiments:
human SCD5 = target: T1, human SCD5 (Homo sapiens, UniProt Q86SK9); experiment: Growth inhibition of yeast strain expressing human SCD5 as sole desaturase (OLE1 deleted), OD600 readout; format: cell-based
T1 construct: expressed in transfected cells; host or cells: yeast strain with OLE1 deleted, plasmid-borne human SCD5 (selected in SD-Ura)
T1 sequence (Q86SK9 1-330): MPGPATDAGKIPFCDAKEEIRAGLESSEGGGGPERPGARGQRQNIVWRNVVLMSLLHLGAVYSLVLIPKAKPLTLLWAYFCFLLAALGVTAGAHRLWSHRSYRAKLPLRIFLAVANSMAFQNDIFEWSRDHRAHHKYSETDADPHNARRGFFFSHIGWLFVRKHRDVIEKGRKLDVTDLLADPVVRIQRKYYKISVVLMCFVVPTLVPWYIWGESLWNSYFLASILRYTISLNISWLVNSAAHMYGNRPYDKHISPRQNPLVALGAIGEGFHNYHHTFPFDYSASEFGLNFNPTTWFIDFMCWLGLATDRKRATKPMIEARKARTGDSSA

human SCD1 = target: T2, human SCD1 (Homo sapiens, UniProt O00767); experiment: Growth inhibition of yeast strain expressing human SCD1 as sole desaturase (OLE1 deleted), OD600 readout; format: cell-based
T2 construct: expressed in transfected cells; host or cells: yeast strain with OLE1 deleted, plasmid-borne human SCD1 (selected in SD-Ura)
T2 sequence (O00767 1-359): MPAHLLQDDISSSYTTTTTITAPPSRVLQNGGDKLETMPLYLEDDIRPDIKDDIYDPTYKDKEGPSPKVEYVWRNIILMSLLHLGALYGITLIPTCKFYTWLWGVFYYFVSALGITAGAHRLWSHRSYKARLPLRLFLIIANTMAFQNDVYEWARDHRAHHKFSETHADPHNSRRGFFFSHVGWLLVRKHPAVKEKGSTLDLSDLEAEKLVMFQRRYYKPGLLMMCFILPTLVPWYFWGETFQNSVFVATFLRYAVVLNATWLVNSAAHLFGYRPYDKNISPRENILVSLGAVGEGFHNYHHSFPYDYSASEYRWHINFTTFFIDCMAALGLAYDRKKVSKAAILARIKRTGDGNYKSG

[1] = yeast strain expressing human SCD5 as sole desaturase, growth (OD600) after 40 h at 30° C., read-out: SCD5 IC50
[2] = yeast strain expressing human SCD1 as sole desaturase, growth (OD600) after 40 h at 30° C., read-out: SCD1 IC50

| SMILES | IC50 (human SCD5; [1]) [nM] | IC50 (human SCD1; [2]) [nM] | IC50 (human SCD5; SCD5 IC50) [nM] | IC50 (human SCD1; SCD1 IC50) [nM] |
| --- | --- | --- | --- | --- |
| C=Cc1cnc(C(=O)Nc2ccc(Cc3ccc(F)c(F)c3)cn2)nc1 [Compound 568] | 880 | 3900 |  |  |
| CCn1nc(C(=O)Nc2ncc(Cc3cccc(F)c3)s2)ccc1=O [Compound 227, 1-ethyl-N-(5-(3-fluorobenzyl)thiazol-2-yl)-6-oxo-1,6-dihydropyridazine-3-carboxamide] | 360 | 440 |  |  |
| Cn1cc(C(=O)Nc2ccc(Cc3ccc(F)cc3)cn2)ccc1=O [Compound 53, N-(5-(4-fluorobenzyl)pyridin-2-yl)-1-methyl-6-oxo-1,6-dihydropyridine-3-carboxamide] |  |  | 10 | 280 |
| CC(=O)c1ccc(C(=O)Nc2ccc(Cc3cccc(Cl)c3)cn2)nn1 [Compound 517] | 140 | 180 |  |  |
| Cc1cc(C(=O)Nc2ccc(Cc3cc(F)cc(C#N)c3)cn2)nc(C)n1 [Compound 606] | 170 | 610 |  |  |
| CN1N=C(C(=O)Nc2ccc(CC3CCCCC3)nn2)CCC1=O [Compound 198, N-(6-(cyclohexylmethyl)pyridazin-3-yl)-1-methyl-6-oxo-1,4,5,6-tetrahydropyridazine-3-carboxamide] | 7180 | > 45000 |  |  |
| Cn1nc(C(=O)Nc2ccc(Cc3cccc(F)c3)cn2)ccc1=O [Example 45, N-(5-(3-fluorobenzyl)pyridin-2-yl)-1-methyl-6-oxo-1,6-dihydropyridazine-3-carboxamide] | 430 | 15400 |  |  |
| Cn1cc(C(=O)Nc2ccc(COc3ccccc3)cn2)ccc1=O [Compound 600] | 1600 | 28000 |  |  |
| CC(O)c1ccc(C(=O)Nc2ccc(Cc3cc(F)cc(F)c3)cn2)cn1 (stereo not shown) [Compound 513] | 170 | 770 |  |  |
| O=C(Nc1ccc(Cc2cccc(F)c2)cn1)c1ccnc(C2CC2)n1 [Compound 506] | 14 | 1500 |  |  |
| CN1N=C(C(=O)Nc2ccc(Cc3cncc(C(F)(F)F)c3)cn2)CCC1=O [Compound 277] | 13400 | > 45000 |  |  |
| Cn1cc(C(=O)Nc2ccc(Cc3cccc(C#N)c3)cn2)ccc1=O [Compound 61, N-(5-(3-cyanobenzyl)pyridin-2-yl)-1-methyl-6-oxo-1,6-dihydropyridine-3-carboxamide] |  |  | 600 | 7520 |
| O=C(Nc1ccc(COc2cccc(Cl)c2)cn1)c1ccc(=O)n(C2CC2)c1 [Compound 291] | 4910 | 22500 |  |  |
| Cn1nccc(C(=O)Nc2ccc(Cc3ccc(F)c(F)c3)cn2)c1=O [Compound 547] | 10 | 240 |  |  |
| COc1cccc(Cc2ccc(NC(=O)c3ccc(=O)n(C)n3)nc2)c1 [Example 44, N-(5-(3-methoxybenzyl)pyridin-2-yl)-1-methyl-6-oxo-1,6-dihydropyridazine-3-carboxamide] | 780 | 14100 |  |  |
| CN1N=C(C(=O)Nc2ncc(Cc3cccc(C#N)c3)s2)CCC1=O [Compound 209, N-(5-(3-cyanobenzyl)thiazol-2-yl)-1-methyl-6-oxo-1,4,5,6-tetrahydropyridazine-3-carboxamide] | 2450 | 1690 |  |  |
| O=C(Nc1ccc(Cc2cccc(F)c2)cn1)c1ccc(=O)n(C2CC2)n1 [Compound 75, 1-cyclopropyl-N-(5-(3-fluorobenzyl)pyridin-2-yl)-6-oxo-1,6-dihydropyridazine-3-carboxamide] | 10 | 1490 |  |  |
| N#Cc1ccc(C(=O)Nc2ccc(Cc3cccc(Cl)c3)cn2)cn1 [Compound 120, N-(5-(3-chlorobenzyl)pyridin-2-yl)-6-cyanonicotinamide] | 30 | > 45000 |  |  |
| Cn1cc(C(=O)Nc2ccc(Oc3ccc(F)c(Cl)c3)cn2)ccc1=O [Compound 167, N-[5-(3-chloro-4-fluorophenoxy)pyridin-2-yl]-1-methyl-6-oxo-1,6-dihydropyridine-3-carboxamide] | 930 | 25900 |  |  |
| Cn1cc(C(=O)Nc2ccc(Cc3ccc(F)c(F)c3Cl)cn2)ccc1=O [Compound 572] | 10 | 17 |  |  |
| CN1N=C(C(=O)Nc2ccnc(Cc3cccc(Cl)c3)c2)CCC1=O [Compound 382] | > 45000 | > 45000 |  |  |
| CCn1ccc(C(=O)Nc2ccc(Cc3ccc(F)cc3)cn2)n1 [Compound 102, 1-ethyl-N-(5-(4-fluorobenzyl)pyridin-2-yl)-1H-pyrazole-3-carboxamide] | 80 | 10300 |  |  |
| Cn1nc(NC(=O)c2ccc(Cc3cc(F)cc(F)c3)cn2)ccc1=O [Compound 310] | 10 | 140 |  |  |
| CN1N=C(C(=O)Nc2ncc(COc3cccc(Cl)c3)s2)CCC1=O [Compound 385] | > 45000 | > 45000 |  |  |
| Cn1cc(C(=O)Nc2ccc(Cc3cccc(Cl)c3)cn2)cn1 [Compound 94, N-(5-(3-chlorobenzyl)pyridin-2-yl)-1-methyl-1H-pyrazole-4-carboxamide] | 10 | 30 |  |  |

Further lines, with some results ahead:

| IC50 (human SCD5; [1]) [nM] | IC50 (human SCD1; [2]) [nM] | SMILES | IC50 (human SCD5; SCD5 IC50) [nM] | IC50 (human SCD1; SCD1 IC50) [nM] |
| --- | --- | --- | --- | --- |
| > 45000 | > 45000 | CN1N=C(C(=O)Nc2ccc(CC3CC3)cn2)CCC1=O [Compound 468] |  |  |
| 270 | 1800 | O=C(Nc1ccc(Cc2cccc(F)c2)cn1)c1cscn1 [Compound 633] |  |  |
| 2000 | > 45000 | Cn1nc(C(=O)Nc2ccc(COc3cc(Cl)cc(C#N)c3)cn2)ccc1=O [Compound 671] |  |  |
| 820 | 10000 | C=C(c1ccc(C(=O)Nc2ccc(Cc3cccc(Cl)c3)cn2)cn1)C(F)(F)F [Compound 499] |  |  |
| 370 | 510 | O=C(Nc1ccc(Cc2cccc(F)c2)cn1)c1ccnnc1 [Compound 143, N-(5-(3-fluorobenzyl)pyridin-2-yl)pyridazine-4-carboxamide] |  |  |
| 54 | > 45000 | Cc1cc(C(=O)Nc2ccc(Cc3cccc(F)c3)cn2)c(=O)n(C)n1 [Compound 624] |  |  |
| 10 | 220 | Cn1ccc(C(=O)Nc2ccc(Cc3cc(F)cc(F)c3)cn2)cc1=O [Compound 533] |  |  |
| 8040 | > 45000 | CN1N=C(C(=O)Nc2ccc(Oc3cccc(Cl)c3)cc2)CCC1=O [Compound 159, N-(4-(3-chlorophenoxy)phenyl)-1-methyl-6-oxo-1,4,5,6-tetrahydropyridazine-3-carboxamide] |  |  |
| 10 | 2300 | O=C(Nc1ccc(Cc2cccc(Cl)c2)cn1)c1cc2ncncc2s1 [Compound 556] |  |  |
| 170 | 4580 | CN1N=C(C(=O)Nc2ccc(COc3cccc(F)c3)cn2)CCC1=O [Compound 260] |  |  |
| 20 | 20 | NCc1ccc(C(=O)Nc2ccc(Cc3cccc(Cl)c3)cn2)cn1 [Compound 121, 6-(aminomethyl)-N-(5-(3-chlorobenzyl)pyridin-2-yl)nicotinamide 2,2,2-trifluoroacetate] |  |  |
| 950 | > 45000 | Cn1cc(C(=O)Nc2ccc(Cc3cncc(Cl)c3)cn2)ccc1=O [Compound 276] |  |  |
| 30 | > 45000 | CN1N=C(C(=O)Oc2ccc(NCc3cc(F)cc(C#N)c3)nc2)CCC1=O [Compound 269] |  |  |
| 430 | 10000 | COC(=O)c1ccnc(C(=O)Nc2ccc(Cc3cccc(F)c3)cn2)c1 [Compound 570] |  |  |
| 3530 | > 45000 | Cn1nc(NC(=O)c2ccc(Cc3cccc(Cl)c3)nn2)ccc1=O [Compound 254] |  |  |
| 10 | 150 | Cn1cc(C(=O)Nc2ccc(Cc3cccc(Cl)c3)cn2)ccc1=O [Example 48, N-(5-(3-chlorobenzyl)pyridin-2-yl)-1-methyl-6-oxo-1,6-dihydropyridine-3-carboxamide] |  |  |
| 10 | 20 | O=C(Nc1ccc2nncn2c1)c1ccc(Cc2cccc(Cl)c2)cn1 [Compound 150, N-([1,2,4]triazolo[4,3-a]pyridin-6-yl)-5-(3-chlorobenzyl)picolinamide trifluoroacetic Acid] |  |  |
| 160 | > 45000 | Cc1ncc(C(=O)Nc2ccc(Cc3cccc(F)c3)cn2)cn1 [Compound 141, N-(5-(3-fluorobenzyl)pyridin-2-yl)-2-methylpyrimidine-5-carboxamide] |  |  |
| 200 | 6700 | Cn1nc(C(=O)Nc2ccc(Cc3cccc(C(F)F)c3)cn2)ccc1=O [Compound 561] |  |  |
| 3420 | 3140 | CN1N=C(C(=O)Nc2ccc(Cc3cccc(F)c3)s2)CCC1=O [Compound 343] |  |  |
| 490 | 2900 | CCn1nc(C(=O)Nc2ccc(Cc3ccc(Cl)c(Cl)c3)cn2)ccc1=O [Compound 70, N-(5-(3,4-dichlorobenzyl)pyridin-2-yl)-1-ethyl-6-oxo-1,6-dihydropyridazine-3-carboxamide] |  |  |
| 10 | 2070 | O=C(Nc1ccc(COc2cccc(Cl)c2)cn1)c1ccc(CO)nc1 [Compound 292] |  |  |
